Experimental data taken from patent publication US12134604B1, “1-[4,5-bis(4-chlorophenyl)-1-hexyl-1H-imidazol-2-yl]-2-naphthol as an antimicrobial compound” (KING FAISAL UNIVERSITY, priority 2023, dated 2024).

Tests used:
Format in all cases: cell-based
Details in all cases: after 10, 20, 40 and 60 minutes at all dilutions 1:100, 1:200, 1:400, 1:800 (summary in words)
[1] = system: Staphylococcus aureus; assay: Antimicrobial screening by agar dilution, Staphylococcus aureus
Description: (§1) The antimicrobial properties of the 1-[4,5-bis(4-chlorophenyl)-1-hexyl-1H-imidazol-2-yl]-2-naphthol was studied by the method of agar dilution. Test solutions of each compound was prepared in concentration of 1% using dimethylformamide as a solvent then they are diluted in physiological solution to obtain the final experimental dilutions 1:100, 1:200, 1:400, 1:800. The effect of these substances are compared with furacillin in a controlled study. The testing microbes used were gram positive bacteria Staphylococcus aureus, gram negative bacteria Pseudomonas aeruginosa and Escherichia coli and Candida albicans fungi were taken. The experiments used for this survey were meat-pentonlu agar (EPA) for cultivation of bacteria and Saburo environment for fungi. Each experiment used 1 ml of test solution on each plate 500 min. Add 2 drops of emulsified with microbes feel. All experimental samples were taken from the agar after 10, 20, 40, 60 minutes in the environment on the basis of Patrk planted. Bacteria were cultivated at a temperature of 37° C. for 1 day and the mushroom was kept in a thermostat for […] at a temperature of 28° C. in the. Then results were checked.

[2] = system: Pseudomonas aeruginosa; assay: Antimicrobial screening by agar dilution, Pseudomonas aeruginosa
Description: as §1

[3] = system: Candida albicans; assay: Antimicrobial (antifungal) screening by agar dilution, Candida albicans
Description: as §1

[4] = system: Escherichia coli; assay: Antimicrobial screening by agar dilution, Escherichia coli
Description: as §1

Measured: inhibition activity

CCCCCCn1c(-c2c(O)ccc3ccccc23)nc(-c2ccc(Cl)cc2)c1-c1ccc(Cl)cc1 [1-[4,5-bis(4-chlorophenyl)-1-hexyl-1H-imidazol-2-yl]-2-naphthol]
highest inhibition activity: all assays above
